Experimental data: patent US20250129083A1, “IMIDAZOTETRAZINE COMPOUNDS AND TREATMENT OF TMZ-RESISTANT CANCERS” (THE BOARD OF TRUSTEES OF THE UNIVERSITY OF ILLINOIS, priority 2022, published 2025)
Where two headings read alike, the source gives them in different places.

Experiments:
[1] = system: D341 Med medulloblastoma cell line; experiment: Cell viability assay (Alamar Blue, 7 days), D341 Med; format: cell-based; details: Homo sapiens, 168 h, MGMT (+)/MMR (−), 7 day
Description: (§1) Cell Culture and Reagents. All cell lines were grown in a 37° C., 5% CO2, humidified environment, in media containing 1% penicillin/streptomycin. Stable cell line generation of GL261 MGMT+ was purchased from Creative Biogene. Cell culture conditions are as follows: cell lines U87, T98G, and RKO were grown in EMEM with 10% FBS. D54, GL261, GL261 MGMT+, and U118MG cell lines were grown in DMEM with 10% FBS. HCT116 cells were grown in RMPI with 10% FBS. D341 Med cells were grown in EMEM with 20% FBS. Temozolomide (TMZ) was purchased from AK Scientific. TMZ analogues were synthesized as described below. Compounds were dissolved in DMSO (1% final concentration, Fisher Chemical) for cell culture studies.
(§2) Cell Viability Assays. Cells were harvested, seeded in a 96-well plate and allowed to adhere. After three hours, compound was added to each well in DMSO (1% final concentration). Cells were incubated for seven days (unless otherwise noted) before viability was assessed by the Alamar Blue assay. Raptinal (20 μM) was used as a dead control.

[2] = system: RKO colon cancer cell line; experiment: Cell viability assay (Alamar Blue, 7 days), RKO; format: cell-based; details: 168 h
Description: as §1, §2

[3] = Maximum tolerated dose / tolerability in mice; format: in vivo; details: in vivo, 66 mg/kg, once per day over 5 days
[4] = system: E. coli WP2 uvrA pKM101 strain; experiment: Ames test, E. coli WP2 uvrA pKM101; format: cell-based; details: 30 μM
Description: Next, we measured the mutagenicity of CPZ versus TMZ. TMZ and other DNA methylating chemotherapies are known mutagens, inducing G:C→A:T mutations due to erroneous recognition of O^6-methylguanine. […] CPZ and TMZ (at 30 μM) were also assessed in the E. coli WP2 uvrA pKM101 strain, which is considered one of the more sensitive Ames tester strains available.

[5] = Hydrolytic stability studies; format: physicochemical; details: PBS; for Hydrolytic stability: percentage of prodrug remaining after 2 hours: pH 7.4, 37° C., HPLC; for half-life at 100 μM: 37° C.
Description: Hydrolytic Stability Studies. Compound (100 μM) was incubated at 37° C. in PBS at pH 7.4 (unless otherwise noted). At the indicated time point, an aliquot was collected and analyzed by HPLC. Compound peaks were integrated and compared to the integration at to calculate the percentage of prodrug remaining.

in vivo = details: CD-1 IGS, mouse, brain and serum, iv, 25 mg/kg
Description: (§3) Biodistribution and Toxicity Studies. […] Brain tissue and blood were collected from each mouse and immediately acidified to prevent prodrug degradation. The concentration of each compound in the serum (FIG. 4A) and brain (FIG. 4B) were quantified by LC-MS/MS.
(§4) CD-1 IGS mice were administered compound in 5% DMSO, 10% Tween-20, and 85% SPE-PCD in sterile water (30% w/v) at 25 mg/kg via lateral tail vein injection. Fifteen minutes post injection, mice were sacrificed and blood was collected by lacerating the right auricle with iris scissors. An 18 gauge angiocatheter was inserted through the left ventricle, and all residual circulatory volume was removed by perfusing 0.9% saline solution via an analog peristaltic pump. Blood samples were immediately centrifuged at 13,000 rcf for five minutes and the supernatant collected and acidified with 8.5% aqueous H3PO4. Brains were harvested from the cranial vault, acidified with 0.3% aqueous H3PO4 and flash frozen. Homogenized brain samples were centrifuged twice at 13,000 rcf for ten minutes and supernatant and tissue debris were separated. The resultant supernatant was analyzed, along with plasma, by LC-MS/MS to determine compound concentrations.

GL261 cells = experiment: Cell viability assay (Alamar Blue, 7 days), GL261; format: cell-based; details: Mus musculus, GL261, 168 h
Description: as §1, §2
Plated 1500 c/w for GL261; 600 c/w for U87; 600 c/w for U118MG; 1500 c/w for GL261 MGMT+ Incubated ovn and added 1 μL of compound in DMSO the next day. Incubated over 7 days; added Alamar Blue to assess cell viability and used 10 μM Raptinal as dead control. Error is SEM, n=3.

cancer cells = experiment: Rapid cancer cell death phenotype; format: cell-based; details: relative to TMZ
Text: FIG. 8A-C. Rapid Cancer Cell Death Phenotype.

[6] = Blood-brain barrier permeability; details: mice; 25 mg/kg IV; 15 minutes
Description: as §3, §4

T98G cells = experiment: Cytotoxicity after pretreatment with MGMT inhibitor O6BG; format: cell-based, human; details: T98G pretreated (3 hours) with O6BG vs non-pretreated
Description: FIG. 3A-E. Investigation of the mechanism of action and efficacy of CPZ in MGMT+ cell lines. (A) Detection of O^6-methyl-2′-deoxyguanosine or O^6-propargyl-2′-deoxyguanosine in GL261 cells after treatment with TMZ or CPZ, respectively. GL261 cells were treated with the indicated concentration of compound for 8 hours before they were harvested and genomic DNA was extracted. DNA (10 μg) was hydrolyzed and submitted to LC-MS/MS for quantitation. Both O^6-Me-dG and O^6-proparyl-dG were below the limit of detection in the DMSO control. Error is SEM, n≥3. Cytotoxicity of TMZ (B) or CPZ (C) in T98G cells pretreated (3 hours) with MGMT inhibitor O6BG. Error is SEM, n≥3. (D) 7 day dose-response curves of TMZ and CPZ in GL261 cells. Error is SEM, n≥3. (E) 7 day dose-response curves of TMZ and CPZ in GL261 MGMT+ cells. Error is SEM, n≥3.
To further explore the ability of CPZ to evade MGMT-mediated resistance, MGMT-expressing T98G cells were pretreated with MGMT inhibitor O6BG followed by treatment with TMZ or CPZ. […] This cell death potentiation by TMZ upon treatment with an MGMT inhibitor was also observed in MGMT-expressing cell lines U118MG and RKO, whereas the efficacy of CPZ was again unaffected. […]

[7] = cited from earlier work
Brain tissue binding = format: in vitro ADME; details: 10 uM, 1 h at 37 C in brain tissue homogenate
[8] = Syngeneic subcutaneous model; format: in vivo; details: C57BL/6 mice, 1×10^6 cells; 50 mg/kg IV 1×/day over 5 days from day 5
Description: FIG. 10A-B. Syngeneic Subcutaneous Model (A, B). TABZ and TMZ in vivo: C57BL/6 mice were inoculated with 1×10^6 cells and treated xl/day over 5 days with either vehicle, TMZ, or TABZ (via IV, 50 mg/kg, starting on day 5).

[9] = Hepatic metabolism: stability in mouse liver microsomes; format: in vitro ADME
[10] = 7 days, read-out: Activity, RKO
[11] = MGMT (+)/MMR (−), 7 day, read-out: IC50, RKO
[12] = female, C57BL/6, mouse, ip, intraperitoneal, read-out: MTD, I.P.
[13] = pH 7.4, calculated from hydrolytic stability data, read-out: Half-life, pH 7.4
[14] = 7 day dose-response, read-out: IC50, GL261 (parental)
[15] = MGMT (−) MMR (+), 7 days, 1500 c/w, SEM, n=3, read-out: Activity, GL261

| Compound | IC50 [1] | IC50 [2, 10] | IC50 [2, 11] | MTD at 5 days [3, 12] | Ames test revertant colonies, E. coli WP2 uvrA pKM101 [4] | Mutagenicity, E. coli WP2 uvrA pKM101 [4] | Hydrolytic stability: percentage of prodrug remaining after 2 hours [5] | half-life at 100 μM [5, 13] | Kp at 15 min (in vivo) | IC50 (GL261 cells; [14]) | IC50 (GL261 cells; [15]) | Potentiation of cell death by O6BG pretreatment (T98G cells) | other results |
| --- | --- | --- | --- | --- | --- | --- | --- | --- | --- | --- | --- | --- | --- |
| C#CCn1nnc2c(Cl)ncn2c1=O [CPZ, 8-chloro-3-(prop-2-yn-1-yl)imidazo[5,1-d][1,2,3,5]tetrazin-4(3H)-one] | 8 µM | 10 ± 1 µM | 10 µM | 66 mg/kg | no revertant colonies | non-mutagenic | 30% | 1.2 h | 1.2 ± 0.2 | 28 µM | 28 ± 3 µM | No such enhancement in activity | Speed of cell death induction (cancer cells): induce cell death quickly relative to TMZ; Increase in brain distribution relative to TMZ [6]: > 10 fold |
| Cn1nnc2c(C(N)=O)ncn2c1=O [TMZ, temozolomide, reference compound] | 460 µM | > 1000 µM | > 1000 µM | 66 mg/kg | 95/96 | mutagenic | 40% | ~1.5 h | 0.08 ± 0.01 | 120 µM | 120 ± 62 µM | dramatic potentiation of cell death | Half-life in vivo (human pharmacokinetics) ([7]; human patients): 1.5 to 2 h; Cerebral spinal fluid concentration as percentage of plasma concentration ([7]; humans): about 20%; MTD at 5 days ([3]; mouse, intravenous, read-out: MTD, I.V.): 66 mg/kg; half-life at 100 μM ([5]; pH 7, calculated from hydrolytic stability data, read-out: Half-life, pH 7): 2.97 ± 0.0833 h; half-life at 100 μM ([5]; pH 8, calculated from hydrolytic stability data, read-out: Half-life, pH 8): 0.483 ± 0.0167 h; Brain tissue binding, insoluble fraction, tissue homogenizer (Brain tissue binding): 40 ± 5%; Brain tissue binding, insoluble fraction, ultrasonication (Brain tissue binding): 30 ± 3%; Brain tissue binding, soluble fraction, tissue homogenizer (Brain tissue binding): 59 ± 5%; Brain tissue binding, soluble fraction, ultrasonication (Brain tissue binding): 66 ± 3%; Tumor growth [8]: exacerbation of tumor growth; Stability (2 h, with MLM) ([9]; percentage remaining relative to t0, mouse liver microsomes, SEM, n ≥ 2): 95 ± 1%; Stability (2 h, no MLM) ([9]; percentage remaining, microsomes replaced with PBS): 92 ± 0.2% |
